Experimental data from patent US11919899B2, “Substituted 1-(3,3-difluoropiperidin-4-yl)-imidazo[4,5-c] quinolin-2-one compounds with blood-brain barrier penetrable capability” (priority 2020, dated 2024).

Legend:
[1] = Blood-brain barrier penetration (brain tissue to plasma concentration ratio); assay type: in vivo; settings: ratio of concentration in brain tissue to plasma; rats or mice, four hours after dosing
Method: Four hours after dosing, rats or mice were sacrificed, blood and brain tissue were collected and the concentration of the test compound was analyzed. Brain permeation is defined as the ratio of the concentration of the compound in the brain tissue to the concentration in the plasma. P-glycoprotein and BCRP (Breast Cancer Resistance Protein) are the blood-brain barrier efflux proteins, the P-glycoprotein substrate (Efflux ratio>1.5) and/or BCRP substrate (Efflux ratio>1.5) is out of the brain.

[2] = molecular target: P-glycoprotein (Homo sapiens, UniProt P08183); assay: P-glycoprotein efflux substrate; assay type: in vitro ADME; settings: not told
[3] = molecular target: T1, BCRP (Homo sapiens, UniProt Q9UNQ0); assay: BCRP efflux substrate; assay type: in vitro ADME; settings: not told
T1 sequence (Q9UNQ0 1-655): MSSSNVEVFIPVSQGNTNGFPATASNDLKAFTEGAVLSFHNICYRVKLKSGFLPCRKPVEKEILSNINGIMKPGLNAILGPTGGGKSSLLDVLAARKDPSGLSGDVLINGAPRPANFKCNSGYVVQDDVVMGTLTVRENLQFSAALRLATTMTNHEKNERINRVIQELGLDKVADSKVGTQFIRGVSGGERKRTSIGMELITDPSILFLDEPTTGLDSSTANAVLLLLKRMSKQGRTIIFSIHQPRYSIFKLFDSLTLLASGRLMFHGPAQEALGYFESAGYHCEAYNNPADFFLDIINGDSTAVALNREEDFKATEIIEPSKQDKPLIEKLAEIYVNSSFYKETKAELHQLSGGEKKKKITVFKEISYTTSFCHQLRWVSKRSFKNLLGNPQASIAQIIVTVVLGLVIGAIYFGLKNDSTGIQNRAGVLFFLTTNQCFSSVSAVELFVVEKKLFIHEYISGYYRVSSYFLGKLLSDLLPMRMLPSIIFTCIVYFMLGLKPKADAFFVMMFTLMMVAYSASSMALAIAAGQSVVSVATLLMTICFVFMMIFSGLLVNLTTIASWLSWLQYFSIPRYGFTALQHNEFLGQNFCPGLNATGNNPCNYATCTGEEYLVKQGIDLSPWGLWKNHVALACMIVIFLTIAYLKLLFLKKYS

Chain of P-glycoprotein (P08183 whole entry): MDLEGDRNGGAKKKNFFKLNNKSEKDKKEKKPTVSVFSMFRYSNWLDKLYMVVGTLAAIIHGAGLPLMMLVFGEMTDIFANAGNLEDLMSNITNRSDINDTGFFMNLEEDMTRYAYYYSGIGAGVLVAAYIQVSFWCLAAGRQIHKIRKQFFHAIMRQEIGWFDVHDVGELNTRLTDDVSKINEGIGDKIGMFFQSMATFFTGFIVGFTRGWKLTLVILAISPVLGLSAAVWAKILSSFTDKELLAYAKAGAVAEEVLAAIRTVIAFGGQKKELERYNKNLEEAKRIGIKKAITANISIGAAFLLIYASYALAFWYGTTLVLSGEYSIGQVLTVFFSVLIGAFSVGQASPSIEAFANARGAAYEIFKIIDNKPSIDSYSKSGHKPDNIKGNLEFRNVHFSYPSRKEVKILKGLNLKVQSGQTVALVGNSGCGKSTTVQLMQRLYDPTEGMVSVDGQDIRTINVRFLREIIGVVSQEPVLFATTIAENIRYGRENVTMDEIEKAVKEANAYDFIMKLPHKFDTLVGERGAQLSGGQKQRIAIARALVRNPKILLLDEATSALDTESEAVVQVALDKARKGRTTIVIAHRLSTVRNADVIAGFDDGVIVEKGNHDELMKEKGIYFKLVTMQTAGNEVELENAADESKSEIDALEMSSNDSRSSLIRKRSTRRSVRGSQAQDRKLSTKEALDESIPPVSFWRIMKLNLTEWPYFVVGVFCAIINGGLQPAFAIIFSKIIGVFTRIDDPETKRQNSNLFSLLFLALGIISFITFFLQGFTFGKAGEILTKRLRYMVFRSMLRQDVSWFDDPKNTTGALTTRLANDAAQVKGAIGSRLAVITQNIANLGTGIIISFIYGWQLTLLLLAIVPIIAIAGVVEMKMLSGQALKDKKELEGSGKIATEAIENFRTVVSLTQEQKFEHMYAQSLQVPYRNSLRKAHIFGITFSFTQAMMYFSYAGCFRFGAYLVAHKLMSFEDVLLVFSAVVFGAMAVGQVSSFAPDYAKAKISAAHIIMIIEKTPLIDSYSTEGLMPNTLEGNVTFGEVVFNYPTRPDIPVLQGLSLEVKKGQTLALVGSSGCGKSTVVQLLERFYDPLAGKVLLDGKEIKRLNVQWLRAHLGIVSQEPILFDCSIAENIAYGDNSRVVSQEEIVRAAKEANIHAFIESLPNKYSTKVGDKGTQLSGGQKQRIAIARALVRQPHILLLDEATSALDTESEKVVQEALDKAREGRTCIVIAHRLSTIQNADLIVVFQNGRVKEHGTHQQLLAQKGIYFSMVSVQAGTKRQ

Row | SMILES | Kp at 4 h [1] | efflux ratio [2] | efflux ratio [3]
1 | CCN1CC[C@@H](n2c(=O)n(C)c3cnc4ccc(-c5ccc(OC)nc5)cc4c32)C(F)(F)C1 [Compound 15, (R)-1-(1-ethyl-3,3-difluoropiperidin-4-yl)-8-(6-methoxypyridin-3-yl)-3-methyl-1,3-dihydro-2H-imidazo[4,5-c]quinolin-2-one] | > 0.3 | < 1 | < 1
2 | COc1ccc(-c2ccc3ncc4c(c3c2)n([C@@H]2CCN(C(C)C)CC2(F)F)c(=O)n4C)cn1 [Compound 16, (R)-1-(3,3-difluoro-1-isopropylpiperidin-4-yl)-8-(6-methoxypyridin-3-yl)-3-methyl-1,3-dihydro-2H-imidazo[4,5-c]quinolin-2-one] | > 0.3 | < 1 | < 1
3 | CN1CC[C@@H](n2c(=O)n(C)c3cnc4ccc(-c5ccc(N(C)C)nc5)cc4c32)C(F)(F)C1 [Compound 21, (R)-1-(3,3-difluoro-1-methylpiperidin-4-yl)-8-(6-(dimethylamino)pyridin-3-yl)-3-methyl-1,3-dihydro-2H-imidazo[4,5-c]quinolin-2-one] | > 0.3 | < 1 | < 1
4 | CCOc1ccc(-c2ccc3ncc4c(c3c2)n([C@@H]2CCN(C)CC2(F)F)c(=O)n4C)cn1 [Compound 17, (R)-1-(3,3-difluoro-1-methylpiperidin-4-yl)-8-(6-ethoxypyridin-3-yl)-3-methyl-1,3-dihydro-2H-imidazo[4,5-c]quinolin-2-one] | > 0.3 | < 1 | < 1
5 | COc1ccc(-c2cc3c(cc2F)ncc2c3n([C@@H]3CCN(C)CC3(F)F)c(=O)n2C)cn1 [Compound 18, (R)-1-(3,3-difluoro-1-methylpiperidin-4-yl)-7-fluoro-8-(6-methoxypyridin-3-yl)-3-methyl-1,3-dihydro-2H-imidazo[4,5-c]quinolin-2-one] | > 0.3 | < 1 | < 1
6 | CCN1CCC(n2c(=O)n(C)c3cnc4ccc(-c5ccc(OC)nc5)cc4c32)C(F)(F)C1 (racemic) [Compound 2, (R/S)-1-(1-ethyl-3,3-difluoropiperidin-4-yl)-8-(6-methoxypyridin-3-yl)-3-methyl-1,3-dihydro-2H-imidazo[4,5-c]quinolin-2-one] | > 0.3 | < 1 | < 1
7 | CC(C)Oc1ccc(-c2ccc3ncc4c(c3c2)n(C2CCN(C)CC2(F)F)c(=O)n4C)cn1 (racemic) [Compound 7, (R/S)-1-(3,3-difluoro-1-methylpiperidin-4-yl)-8-(6-isopropoxypyridin-3-yl)-3-methyl-1,3-dihydro-2H-imidazo[4,5-c]quinolin-2-one] | > 0.3 | < 1 | < 1
8 | CN1CC[C@H](n2c(=O)n(C)c3cnc4ccc(-c5ccc(N6C[C@H]7[C@@H]6CCN7C)nc5)cc4c32)C(F)(F)C1 [Compound 41] | > 0.3 | < 1 | < 1
9 | COc1ccc(-c2cc3c(cc2F)ncc2c3n([C@H]3CCN(C)CC3(F)F)c(=O)n2C)cn1 [Compound 32, (S)-1-(3,3-difluoro-1-methylpiperidin-4-yl)-7-fluoro-8-(6-methoxypyridin-3-yl)-3-methyl-1,3-dihydro-2H-imidazo[4,5-c]quinolin-2-one] | > 0.3 | < 1 | < 1
10 | CCOc1ccc(-c2ccc3ncc4c(c3c2)n(C2CCN(C)CC2(F)F)c(=O)n4C)cn1 (racemic) [Compound 4, (R/S)-1-(3,3-difluoro-1-methylpiperidin-4-yl)-8-(6-ethoxypyridin-3-yl)-3-methyl-1,3-dihydro-2H-imidazo[4,5-c]quinolin-2-one] | > 0.3 | < 1 | < 1
11 | CN1CC[C@H](n2c(=O)n(C)c3cnc4ccc(-c5ccc(N(C)C)nc5)cc4c32)C(F)(F)C1 [Compound 35, (S)-1-(3,3-difluoro-1-methylpiperidin-4-yl)-8-(6-(dimethylamino)pyridin-3-yl)-3-methyl-1,3-dihydro-2H-imidazo[4,5-c]quinolin-2-one] | > 0.3 | < 1 | < 1
12 | CN1CC[C@@H](n2c(=O)n(C)c3cnc4ccc(-c5ccc(N6CC(N(C)C)C6)nc5)cc4c32)C(F)(F)C1 [Compound 24, (R)-1-(3,3-difluoro-1-methylpiperidin-4-yl)-8-(6-(3-(dimethylamino)azetidin-1-yl)pyridin-3-yl)-3-methyl-1,3-dihydro-2H-imidazo[4,5-c]quinolin-2-one] | > 0.3 | < 1 | < 1
13 | CCN1CC[C@H](n2c(=O)n(C)c3cnc4ccc(-c5ccc(OC)nc5)cc4c32)C(F)(F)C1 [Compound 29, (S)-1-(1-ethyl-3,3-difluoropiperidin-4-yl)-8-(6-methoxypyridin-3-yl)-3-methyl-1,3-dihydro-2H-imidazo[4,5-c]quinolin-2-one] | > 0.3 | < 1 | < 1
14 | CN1CC[C@H](n2c(=O)n(C)c3cnc4ccc(-c5ccc(N6C[C@@H]7[C@H]6CCN7C)nc5)cc4c32)C(F)(F)C1 [Compound 40] | > 0.3 | < 1 | < 1
15 | COc1ccc(-c2cc3c(cc2F)ncc2c3n(C3CCN(C)CC3(F)F)c(=O)n2C)cn1 (racemic) [Compound 5, (R/S)-1-(3,3-difluoro-1-methylpiperidin-4-yl)-7-fluoro-8-(6-methoxypyridin-3-yl)-3-methyl-1,3-dihydro-2H-imidazo[4,5-c]quinolin-2-one] | > 0.3 | < 1 | < 1
16 | COc1ccc(-c2ccc3ncc4c(c3c2)n([C@H]2CCN(C(C)C)CC2(F)F)c(=O)n4C)cn1 [Compound 30, (S)-1-(3,3-difluoro-1-isopropylpiperidin-4-yl)-8-(6-methoxypyridin-3-yl)-3-methyl-1,3-dihydro-2H-imidazo[4,5-c]quinolin-2-one] | > 0.3 | < 1 | < 1
17 | CC(C)Oc1ccc(-c2ccc3ncc4c(c3c2)n([C@H]2CCN(C)CC2(F)F)c(=O)n4C)cn1 [Compound 34, (S)-1-(3,3-difluoro-1-methylpiperidin-4-yl)-8-(6-isopropoxypyridin-3-yl)-3-methyl-1,3-dihydro-2H-imidazo[4,5-c]quinolin-2-one] | > 0.3 | < 1 | < 1
18 | CC(C)Oc1ccc(-c2ccc3ncc4c(c3c2)n([C@@H]2CCN(C)CC2(F)F)c(=O)n4C)cn1 [Compound 20, (R)-1-(3,3-difluoro-1-methylpiperidin-4-yl)-8-(6-isopropoxypyridin-3-yl)-3-methyl-1,3-dihydro-2H-imidazo[4,5-c]quinolin-2-one] | > 0.3 | < 1 | < 1
19 | CN1CCC(n2c(=O)n(C)c3cnc4ccc(-c5ccc(OC6CC6)nc5)cc4c32)C(F)(F)C1 (racemic) [Compound 10, (R/S)-8-(6-cyclopropoxypyridin-3-yl)-1-(3,3-difluoro-1-methylpiperidin-4-yl)-3-methyl-1,3-dihydro-2H-imidazo[4,5-c]quinolin-2-one] | > 0.3 | < 1 | < 1
20 | CN1CCC(n2c(=O)n(C)c3cnc4ccc(-c5ccc(N(C)C)nc5)cc4c32)C(F)(F)C1 (racemic) [Compound 8, (R/S)-1-(3,3-difluoro-1-methylpiperidin-4-yl)-8-(6-(dimethylamino)pyridin-3-yl)-3-methyl-1,3-dihydro-2H-imidazo[4,5-c]quinolin-2-one] | > 0.3 | < 1 | < 1
21 | CN1CC[C@@H](n2c(=O)n(C)c3cnc4ccc(-c5ccc(N6C[C@@H]7[C@H]6CCN7C)nc5)cc4c32)C(F)(F)C1 [Compound 26] | > 0.3 | < 1 | < 1
22 | CCOc1ccc(-c2ccc3ncc4c(c3c2)n([C@H]2CCN(C)CC2(F)F)c(=O)n4C)cn1 [Compound 31, (S)-1-(3,3-difluoro-1-methylpiperidin-4-yl)-8-(6-ethoxypyridin-3-yl)-3-methyl-1,3-dihydro-2H-imidazo[4,5-c]quinolin-2-one] | > 0.3 | < 1 | < 1
23 | COc1ccc(-c2ccc3ncc4c(c3c2)n(C2CCN(C(C)C)CC2(F)F)c(=O)n4C)cn1 (racemic) [Compound 3, (R/S)-1-(3,3-difluoro-1-isopropylpiperidin-4-yl)-8-(6-methoxypyridin-3-yl)-3-methyl-1,3-dihydro-2H-imidazo[4,5-c]quinolin-2-one] | > 0.3 | < 1 | < 1
